As a reminder, the IC50 is the concentration that inhibits the measured activity by half. A lower IC50 goes with inhibition by little substance.

The test deals with binding of biotinylated human growth hormone (b-hGH) to the extracellular domain of its receptor (Homo sapiens, UniProt P01241). As to the kind of experiment: ELISA of binding of biotinylated human growth hormone (b-hGH) to the extracellular domain of its receptor. The settings on record: inhibition of b-hGH (about 1.5 nM) binding to receptor-coated plates; compounds re-tested at multiple concentrations. How it is done: A collection of heterocyclic aromatic compounds (384 total; 1 mmol each) was obtained from Aldrich Chemical Company or prepared as described in Holan et al., J. Chem Soc. C, 20-25 (1967)) incorporated herein by reference. Each compound was dissolved in dimethyl sulfoxide (DMSO) to yield a 100-mM solution and arrayed in 96-well polypropylene deep-well plates (Beckman). Dilutions (10-fold in DMSO) were prepared from the parent plates; these 10-mM stocks were then diluted 50-fold in the screening assay as described below (200 μM final concentration; 2% DMSO).
Chain of binding of biotinylated human growth hormone (b-hGH) to the extracellular domain of its receptor (P01241 27-217): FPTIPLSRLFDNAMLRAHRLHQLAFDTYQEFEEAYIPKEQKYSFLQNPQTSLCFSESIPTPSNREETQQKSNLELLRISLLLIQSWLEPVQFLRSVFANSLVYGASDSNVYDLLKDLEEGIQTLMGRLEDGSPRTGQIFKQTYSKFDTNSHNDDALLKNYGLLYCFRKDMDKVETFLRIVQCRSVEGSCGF
Human growth hormone (100 μM) in phosphate-buffered saline (PBS) was treated with 2 molar equivalents of EZ-Link Sulfo-NHS-LC-biotin™ (Pierce 21335™) according to the manufacturer's instructions. Binding of the biotinylated human growth hormone (b-hGH) to the extracellular domain of its receptor was assayed in an ELISA format. Briefly, Nunc Maxi-Sorb™ 96-well plates were treated with a solution of the receptor (2 μg/mL) in phosphate-buffered saline (PBS) overnight at 4° C. Plates were then blocked with a 0.2% solution of bovine serum albumin (BSA; Sigma A-7638) in PBS for 2 hours at room temperature. An appropriate dilution of b-hGH (generally about 1.5 nM final concentration in PBS containing 0.05% Tween-20 T detergent) was added to polypropylene plates containing aliquots of the screening collection (147 μL b-hGH to 3 μL compound in DMSO) or DMSO alone, and the mixtures were allowed to equilibrate at room temperature for approximately 45 min. These mixtures were then transferred to the receptor-coated plates and allowed to stand for 15 min. Plates were washed (10 times) with PBS/Tween-20™. Streptavidin-HRP conjugate (Zymed Laboratories 43-4323™) followed by TMB peroxidase reagent (Kirkegaard & Perry Laboratories 50-76-03™) was used to detect bound b-hGH. Several potential inhibitor compounds were re-tested at multiple concentrations. Table 1 below provides IC50 of the compounds tested.
As to `Clc1cc2nc(C(Cl)(Cl)Cl)[nH]c2cc1Cl` [(v)], the IC50 is 51 µM. This lies in the double-digit micromolar range.
Consider `Cc1nc2cc(Cl)ccc2[nH]1` [(viii)], for which the IC50 is > 1000 µM.
`Clc1ccc2nc(C(Cl)(Cl)Cl)[nH]c2c1` [(i)] had an IC50 of 77 µM.
Next, `ClC(Cl)(Cl)c1nc2ccccc2s1` [(x)]: > 1000 µM.
For `Cc1nc2ccccc2[nH]1` [(xi)] the value was > 1000 µM; for `Clc1ccc2[nH]cnc2c1` [(vii)], > 1000 µM.
Consider `Cc1ccc2[nH]cnc2c1` [(xiii)], for which the IC50 is > 1000 µM.
Regarding `Cn1c(C(Cl)(Cl)Cl)nc2ccccc21` [(iii)], the IC50 is 150 µM.
Next, `Cc1ccc2[nH]c(C(Cl)(Cl)Cl)nc2c1` [(iv)]: 98 µM.
For the compound `ClC(Cl)(Cl)c1nc2ccccc2o1` [(ix)], the IC50 was > 1000 µM.
For `FC(F)(F)c1nc2cc(Cl)ccc2[nH]1` [(vi)] the value was > 1000 µM.
`c1ccc2[nH]c(-c3cscn3)nc2c1` [(xii)]: the IC50 is > 1000 µM.
`ClC(Cl)(Cl)c1nc2ccccc2[nH]1` [(ii)] had an IC50 of 170 µM.

Values taken from patent publication US20060183784A1, “Human growth hormone antagonists” (Genentech, Inc., priority 2001, published 2006).
